Values quoted from earlier work as cited in PMC4264749, “Phlebotomy Treatment for Elimination of Perfluoroalkyl Acids in a Highly Exposed Family: A Retrospective Case-Series” (PLoS ONE, 2014).

Settings: cited from earlier work

cholestyramine
facilitating removal / elimination of PFAAs: successful | PFOA levels in users compared to non-users (individuals using it for other medical reasons, West Virginia drinking water contamination): significantly lower
